# Measurements reported in US20230117034A1, “PYRAZOLOTRIAZINES” (Bayer Aktiengesellschaft, priority 2019, published 2023).
# pIC50: −log10 of the molar value.
# Assays:
# [1] = test system: BRCA1 mRNA expression in MDA-MB-231 cells; test: qRT-PCR assay: BRCA1 mRNA expression in MDA-MB-231; assay type: cell-based, human; conditions: Homo sapiens, MDA-MB-231, Inhibition of BRCA1 mRNA expression in MDA-MB-231 cells; median; read-out: RTqPCR-MDA-MB-231, IC50, BRCA1 (median)
# Outline: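 Read-out is RT-qPCR with expression normalised to the GAPDH housekeeping gene. Before RNA isolation, plated cells (200,000 per well, 24 h attachment) received test substances continuously over 24 h, and 600 ng of RNA served as cDNA template.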
# [2] = test system: MDA-MB-231, human breast cancer cells; test: Proliferation assay MDA-MB-231 (crystal violet, 4 days); assay type: cell-based; conditions: Homo sapiens, MDA-MB-231, 96 h, MDA-MB-231 cells, median, read-out: Prolif-MDA MB-231, IC50-[mol/l] (median)
# Outline: (§1)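 Plated 4,000 cells/well, 10% FCS; 24 h later treated 0.01-10 µmol/L cpd (DMSO 0.1%), 4 d. Fix glutaraldehyde, stain 0.1% crystal violet pH 3.0, elute acetic acid, A595. Normalized to t0 plate/untreated; 4-param IC50.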
# [3] = test system: CAL-120, human breast adenocarcinoma cells; test: Proliferation assay CAL-120 (crystal violet, 4 days); assay type: cell-based; conditions: Homo sapiens, CAL-120, 96 h, CAL-120 cells, median, read-out: Prolif-CAL-120, IC50-[mol/l] (median)
# Outline: as §1
# [4] = biological target: T1, CDK12 (nuclear staining in CAL-120 cells) (Homo sapiens, UniProt Q9NYV4); test: CDK12 nuclear protein level: immunofluorescence/high content analysis (CAL-120); assay type: cell-based; conditions: for DC50: CAL-120 cells, 24 h, immunofluorescence, 50% reduction of nuclear CDK12 staining intensity, median, read-out: CDK12 degradation IF, DC50- [mol/l] (median); for (IC50 CDK12 high ATP) to (Degradation DC50 CDK12) ratio: ratio of IC50 CDK12 high ATP kinase assay to DC50 CDK12 degradation (IF, CAL-120)
# T1 construct: endogenous in cells; host or cells: CAL-120 human breast cancer cells (DSMZ ACC 459)
# Outline: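 CAL-120 cells were treated with compound for 24 h at 37 °C, fixed with PFA and immunostained for CDK12. Nuclear CDK12 intensity was quantified by automated image analysis and normalized to DMSO and control. DC50 is the concentration giving 50% reduction of nuclear staining.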
# [5] = biological target: T2, CYCLIN K (nuclear staining in CAL-120 cells) (Homo sapiens, UniProt O75909); test: CYCLIN K nuclear protein level: immunofluorescence high content analysis (CAL-120); assay type: cell-based; conditions: 24 h, 50% reduction of nuclear CCNK staining intensity, median, read-out: CYCLIN K degradation IF, DC50-[mol/l] (median)
# T2 construct: endogenous in cells; host or cells: CAL-120 human breast cancer cells (DSMZ ACC 459)
# Outline: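 CAL-120 breast cancer cells treated in dose-response for 24 h at 37 °C, PFA-fixed and immunostained for cyclin K with Hoechst counterstain. Confocal imaging quantified nuclear intensity; DC50 is the concentration giving 50% reduction of nuclear CCNK staining, normalized to DMSO and control.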
# T1 sequence (Q9NYV4 whole entry): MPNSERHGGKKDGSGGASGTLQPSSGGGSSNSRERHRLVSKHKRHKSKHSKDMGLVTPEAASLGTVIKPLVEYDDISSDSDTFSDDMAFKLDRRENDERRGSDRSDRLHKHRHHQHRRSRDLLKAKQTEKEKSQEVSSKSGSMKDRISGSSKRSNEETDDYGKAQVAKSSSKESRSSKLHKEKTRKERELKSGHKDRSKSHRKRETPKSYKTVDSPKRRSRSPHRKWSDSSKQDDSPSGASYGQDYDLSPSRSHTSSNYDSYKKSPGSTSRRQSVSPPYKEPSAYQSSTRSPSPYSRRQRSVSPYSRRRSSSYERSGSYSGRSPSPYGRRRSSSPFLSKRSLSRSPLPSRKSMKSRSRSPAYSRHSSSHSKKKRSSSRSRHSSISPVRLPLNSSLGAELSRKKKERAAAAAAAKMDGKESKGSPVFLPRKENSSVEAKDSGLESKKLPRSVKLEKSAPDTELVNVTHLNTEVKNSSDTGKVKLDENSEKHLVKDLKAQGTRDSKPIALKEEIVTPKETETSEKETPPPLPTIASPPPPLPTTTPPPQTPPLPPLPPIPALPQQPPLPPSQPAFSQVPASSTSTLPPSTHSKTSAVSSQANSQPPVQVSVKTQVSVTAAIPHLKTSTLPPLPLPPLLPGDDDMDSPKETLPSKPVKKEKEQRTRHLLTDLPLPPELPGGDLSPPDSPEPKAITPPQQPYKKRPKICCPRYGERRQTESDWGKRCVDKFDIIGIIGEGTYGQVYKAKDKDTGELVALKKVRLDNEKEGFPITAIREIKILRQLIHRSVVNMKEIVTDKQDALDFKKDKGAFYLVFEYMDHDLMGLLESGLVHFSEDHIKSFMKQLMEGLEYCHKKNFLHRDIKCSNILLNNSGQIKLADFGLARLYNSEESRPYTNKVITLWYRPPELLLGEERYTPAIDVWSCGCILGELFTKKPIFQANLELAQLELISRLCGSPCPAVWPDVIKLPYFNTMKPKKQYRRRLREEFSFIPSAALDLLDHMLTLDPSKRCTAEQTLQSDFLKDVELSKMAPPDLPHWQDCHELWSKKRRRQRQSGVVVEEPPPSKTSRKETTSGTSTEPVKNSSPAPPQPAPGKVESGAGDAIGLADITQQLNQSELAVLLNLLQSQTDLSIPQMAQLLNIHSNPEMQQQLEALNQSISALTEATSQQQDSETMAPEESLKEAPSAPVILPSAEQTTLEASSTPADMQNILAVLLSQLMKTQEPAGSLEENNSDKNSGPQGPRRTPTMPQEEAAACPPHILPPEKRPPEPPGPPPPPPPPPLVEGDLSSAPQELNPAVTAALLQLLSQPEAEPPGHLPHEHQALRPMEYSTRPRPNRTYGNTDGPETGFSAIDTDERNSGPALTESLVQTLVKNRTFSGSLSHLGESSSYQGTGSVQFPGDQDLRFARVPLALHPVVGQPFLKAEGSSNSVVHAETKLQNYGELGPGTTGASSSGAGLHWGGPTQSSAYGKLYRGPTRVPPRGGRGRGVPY
# T1 sequence (O75909 whole entry partner): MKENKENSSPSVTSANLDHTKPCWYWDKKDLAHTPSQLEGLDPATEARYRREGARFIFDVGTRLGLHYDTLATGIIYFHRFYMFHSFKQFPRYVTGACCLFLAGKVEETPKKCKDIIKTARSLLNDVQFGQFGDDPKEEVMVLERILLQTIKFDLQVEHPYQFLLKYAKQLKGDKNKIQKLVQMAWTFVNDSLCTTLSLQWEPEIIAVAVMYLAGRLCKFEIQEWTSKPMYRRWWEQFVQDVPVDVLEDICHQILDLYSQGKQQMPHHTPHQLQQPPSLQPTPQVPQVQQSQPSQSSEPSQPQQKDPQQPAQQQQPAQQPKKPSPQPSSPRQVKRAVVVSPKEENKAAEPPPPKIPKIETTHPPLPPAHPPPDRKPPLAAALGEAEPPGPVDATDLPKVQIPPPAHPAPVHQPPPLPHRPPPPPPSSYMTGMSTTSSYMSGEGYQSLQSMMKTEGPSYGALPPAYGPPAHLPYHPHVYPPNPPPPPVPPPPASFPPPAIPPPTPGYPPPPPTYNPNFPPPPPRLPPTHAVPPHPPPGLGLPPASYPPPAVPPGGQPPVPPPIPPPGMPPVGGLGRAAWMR
# T2 sequence (O75909 whole entry): as the sequence (O75909 whole entry partner) above
# T2 sequence (Q9NYV4 whole entry partner): as the sequence (Q9NYV4 whole entry) above
Structure (SMILES),pIC50 [1],pIC50 [2],pIC50 [3],DC50 [4] [nM],(IC50 CDK12 high ATP) to (Degradation DC50 CDK12) ratio [4],DC50 [5] [nM]
"Fc1ccc2[nH]c(CNc3nc(N4CCN5CCC4CC5)nc4c(C(F)(F)F)cnn34)nc2c1F [Example 407, 2-(1,4-diazabicyclo[3.2.2]nonan-4-yl)-N-[(4,5-difluoro-1H-benzimidazol-2-yl)methyl]-8-(trifluoromethyl)pyrazolo[1,5-a][1,3,5]triazin-4-amine]",8.80,8.64,9.03,2.31,306,0.643
"Fc1ccc2[nH]c(CNc3nc(N4CCOCC4)nc4c(C(F)(F)F)cnn34)nc2c1F [Example 426, N-[(4,5-difluoro-1H-benzimidazol-2-yl)methyl]-2-(morpholin-4-yl)-8-(trifluoromethyl)pyrazolo [1,5-a][1,3,5]triazin-4-amine]",8.49,8.38,8.45,0.751,32,0.511
"CCc1cnn2c(NCc3nc4ccccc4[nH]3)nc(N3CCN(C)CC3)nc12 [Example 434, N-[(1H-benzimidazol-2-yl)methyl]-8-ethyl-2-(4-methylpiperazin-1-yl)pyrazolo[1,5-a][1,3,5] triazin-4-amine]",7.98,7.35,7.99,5,>3530,2.06
"Clc1cc2nc(CNc3nc(N4CCOCC4)nc4c(-c5cncs5)cnn34)[nH]c2cc1Cl [Example 443, N-[(5,6-dichloro-1H-benzimidazol-2-yl)methyl]-2-(morpholin-4-yl)-8-(1,3-thiazol-5-yl)pyrazolo[1,5-a][1,3,5]triazin-4-amine]",8.66,8.21,8.27,4.23,941,2.22
"Fc1ccc2[nH]c(CNc3nc(N4CCOCC4)nc4c(CC(F)F)cnn34)nc2c1F.O=C(O)C(F)(F)F [Example 425, trifluoroacetic acid N-[(4,5-difluoro-1H-benzimidazol-2-yl)methyl]-8-(2,2-difluoroethyl)-2-(morpholin-4-yl)pyrazolo[1,5-a][1,3,5]triazin-4-amine]",8.57,8.06,8.51,2.51,852,0.545
